Activity calls are given as the source filed them. How the calls were made is not given here.
Target: Influenza A virus M2 proton channel (A/TW/4845/1999 H1N1)
Test: M2 proton channel binding, NMR based, influenza A virus H1N1 strain (AID 1549)
Conditions: NMR binding screen, M2 protein

| SMILES | Kd |
| --- | --- |
| CC(=O)c1c(C)nc(-c2ccc(Cl)cc2Cl)n1O | > 4 mM (inactive) |
| OCc1c[nH]c2ccccc12 | > 4 mM (inactive) |
| Cc1occc1C(=O)NCc1ccncc1 | > 4 mM (inactive) |
| O=C(C1CCNCC1)N1CCCCCC1 | > 4 mM (inactive) |
| O=C(O)c1ccc(NC(=O)c2cccs2)cc1 | > 4 mM (inactive) |
| NC(=O)C1CCN(C(=S)Nc2ccccc2)CC1 | > 4 mM (inactive) |
| CN(C(N)=O)C1(C)CCS(=O)(=O)C1 (centres undefined) | > 4 mM (inactive) |
| CC(C)=CCOc1c2occc2cc2ccc(=O)oc12 | > 4 mM (inactive) |
| Cc1cc(O)c2c(c1O)C(=O)c1c(O)cc(C)c(O)c1C2=O | > 4 mM (inactive) |
| Nc1ccc(N2CCOCC2)c(Cl)c1 | > 4 mM (inactive) |
| O=C(c1ccco1)N1CCN(Cc2cccc(F)c2)CC1 | > 4 mM (inactive) |
| S=C(c1cccnc1)N1CCOCC1 | > 4 mM (inactive) |
| CC[C@H](CCC(C)[C@H]1CCC2C3CCC4C[C@@H](O)CC[C@]4(C)C3CC[C@@]21C)C(C)C (some centres undefined) | > 4 mM (inactive) |
| Cc1scc(C(=O)Nn2cnnc2)c1-c1ccccc1 | > 4 mM (inactive) |
| CC(=O)Nc1ccc(NC2SC(=O)NC2=O)cc1 (centres undefined) | > 4 mM (inactive) |
| CCNC(=S)N1CCC(C(N)=O)CC1 | > 4 mM (inactive) |
| Cc1ccccc1NC(=O)C1CCC(=O)N1 (centres undefined) | > 4 mM (inactive) |
| NC(=O)CSc1nnc(-c2cccnc2)o1 | > 4 mM (inactive) |
| COC(=O)N1CCN(c2ccc(C(C)=O)cc2)CC1 | > 4 mM (inactive) |
| CC(=O)Nc1cccc(-c2nnc(-c3ccccc3)o2)c1 | > 4 mM (inactive) |
| O=P1(O)c2ccccc2Nc2ccccc21 | > 4 mM (inactive) |
| COC(=O)C[C@@H]1C2(C)C(=O)[C@@H](CC3=C4CC(=O)O[C@@H](c5ccoc5)[C@]4(C)CCC32)[C@H](OC(C)=O)C1(C)C (some centres undefined) | > 4 mM (inactive) |
| CC1=C2[C@H]3OC(=O)[C@@H](C)[C@@H]3CC[C@@]2(C)C=CC1=O | > 4 mM (inactive) |
| CC(=O)Nc1cccc(N2CCCC2=O)c1 | > 4 mM (inactive) |
| COC(=O)c1ccccc1C | > 4 mM (inactive) |

| SMILES | Kd |
| --- | --- |
| Cc1cc(C(=O)NN2CCOCC2)c(C)o1 | > 4 mM (inactive) |
| CN1CCN(C(=O)C2CCCNC2)CC1 (centres undefined) | > 4 mM (inactive) |
| Cc1nc2ccccc2c(=O)n1NC(=O)Nc1ccccc1 | > 4 mM (inactive) |
| Cn1cnc2cc(NC(=O)c3ccco3)ccc21 | > 4 mM (inactive) |
| Cn1nnc2c(Cl)ncnc21 | > 4 mM (inactive) |
| O=c1n(-c2ccccc2)c(=O)n2n1CCCC2 | > 4 mM (inactive) |
| O=C(CNC(=O)c1ccc(F)cc1)NC1=NCCS1 | > 4 mM (inactive) |
| O=c1[nH]cc(NCc2ccccc2)c(=O)[nH]1 | > 4 mM (inactive) |
| CS(C)=C1C(=O)NC(=O)N(c2ccccc2)C1=O | > 4 mM (inactive) |
| O=C(Nc1nccs1)c1cccnc1 | > 4 mM (inactive) |
| NC(=O)c1ccc(N2C(=O)CCC2=O)cc1Cl | > 4 mM (inactive) |
| Cc1nnc(SCc2cccs2)[nH]c1=O | > 4 mM (inactive) |
| Nc1csc(C(=O)O)c1 | > 4 mM (inactive) |
| Cc1ccccc1CSc1nncn1N | > 4 mM (inactive) |
| COc1c(OC)c2occc2c2oc(=O)ccc12 | > 4 mM (inactive) |
| O=C(O)c1ccc(-c2ccccn2)s1 | > 4 mM (inactive) |
| CN(C)C(=O)c1ccc(-c2n[nH]c(=O)c3ccccc23)cc1 | > 4 mM (inactive) |
| Cc1sc2nc(SC3CCOC3=O)[nH]c(=O)c2c1C (centres undefined) | > 4 mM (inactive) |
| C(=N\c1nccs1)/c1cccnc1 | > 4 mM (inactive) |
| COc1ccc(/C=C2\NC(=S)N(C)C2=O)cc1O | > 4 mM (inactive) |
| Cc1cc(C(=O)NC(C)c2ccncc2)cs1 (centres undefined) | > 4 mM (inactive) |
| CCN1CCC2(CC1)CC1CC3C=CC1(CN2C(C)=O)O3 (centres undefined) | > 4 mM (inactive) |
| O=C(O)c1csc(-c2cccnc2)n1 | > 4 mM (inactive) |
| O=[n+]1cc(-c2ccccc2)n([O-])c2c1CCC2 | > 4 mM (inactive) |
